Test: Salt-tolerant effect: clouding point in aqueous sodium sulfate
Assay type: physicochemical
Conditions: 1 mass % solution in 5 mass % aqueous solution of sodium sulfate
Experimental: Clouding point of a 1 mass % solution of tetradecaglycerol succinyl distearoylphosphatidylethanolamine obtained in Example 5, which was dissolved in 5 mass % aqueous solution of sodium sulfate, was measured. As a result of the measurement, clouding point could not be detected even when the temperature was raised to 80° C.
Clouding point was measured for monomethylpolyoxyethylenecarbamyl (molecular weight: 2000) distearoylphosphatidylethanolamine obtained in Comparative Synthesis Example 1 in the same manner as used in Example 9.

“Monomethylpolyoxyethylenecarbamyl (Molecular Weight: 2000) Distearoylphosphatidylethanolamine” showed a Clouding point of 50.0 °C.

“Tetradecaglycerol Succinyl Distearoylphosphatidylethanolamine [DSPE-PG(40)]” gave a Clouding point of over 80 °C.
